# Assay results taken from US20230031406A1, “COMPOUNDS AND COMPOSITIONS FOR TREATING CONDITIONS ASSOCIATED WITH NLRP ACTIVITY” (Novartis AG, priority 2018, published 2023).
# System: PMA-differentiated THP-1 cells
# Experiment: IL-1β production in PMA-differentiated THP-1 cells stimulated with gramicidin (hTHP-1 assay containing 2% fetal bovine serum; Procedures 1 and 2)
# Assay type: cell-based, human
# Conditions: Homo sapiens, THP-1, Table B1; 2% fetal bovine serum; class symbols; read-out: Average IC50 of compounds in hTHP-1 assay: hTHP-1 IC50
# Procedure, shortened: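 Compound titrations in 0.37% final DMSO were added to THP-1 cells that had been plated after 16-18 h PMA treatment, 50,000 per well in 2% FBS. One hour later the cells received gramicidin (5 μM, 2 h) and were centrifuged. HTRF detected IL-1β in the collected supernatants.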
row,IC50,Structure (SMILES)
1,5 to 30 µM,"CC(C)(O)c1ncc(S(N)(=O)=NC(=O)Nc2c3c([n+]([O-])c4c2CCC4)CCC3)s1 (stereo not shown) [Compound 146, 8-(3-(amino(2-(2-hydroxypropan-2-yl)thiazol-5-yl)(oxo)-λ6-sulfaneylidene)ureido)-1,2,3,5,6,7-hexahydrodicyclopenta[b,e]pyridine 4-oxide]"

# Same assay, conditions: Homo sapiens, THP-1, Table B1; 2% fetal bovine serum; numeric bounds; read-out: Average IC50 of compounds in hTHP-1 assay: hTHP-1 IC50
row,IC50,Structure (SMILES)
1,> 30 µM,"Cc1c(-c2ccccc2)nc2c(c1NC(=O)N=S(N)(=O)c1cnc(C(C)(C)O)s1)CCC2 (single isomer, unassigned) [Compound 143a, (S) or (R)-2-(2-hydroxy-propan-2-yl)-N′-((3-methyl-2-phenyl-6,7-dihydro-5H-cyclopenta[b]pyridin-4-yl)carbamoyl)thiazole-5-sulfonimidamide]"
2,> 30 µM,"CC1CCc2c1nc1c(c2NC(=O)N=S(N)(=O)c2ccc(CN(C)C)cc2)CCC1 (single isomer, unassigned) [Compound 134aa, (S,S) or (S,R)-4-((di-methylamino)methyl)-N′-((3-methyl-1,2,3,5,6,7-hexahydrodicyclo-penta[b,e]pyridin-8-yl)carbamoyl)benzene-sulfonimidamide]"
3,> 30 µM,"CC(C)(O)c1ncc(S(N)(=O)=NC(=O)Nc2cc(-c3ccccc3)nc3c2CCC3)s1 (single isomer, unassigned) [Compound 142a, (R) or (S)-2-(2-hydroxy-propan-2-yl)-N′-((2-phenyl-6,7-dihydro-5H-cyclopenta[b]pyridin-4-yl)carbamoyl)thiazole-5-sulfonimidamide]"
4,> 30 µM,"CN(C)Cc1ccc(S(N)(=O)=NC(=O)Nc2c3c(nc4c2CCC4)CCC3)cc1 (single isomer, unassigned) [Compound 130a, (S) or (R)-4-((dimethylamino)methyl)-N′-((1,2,3,5,6,7-hexahydrodicyclo-penta[b,e]pyridin-8-yl)carbamoyl)benzene-sulfonamidamide]"
5,> 30 µM,"CC(C)(O)c1ccc(S(N)(=O)=NC(=O)Nc2c3c(nc4c2CCC4)CCC3)s1 (single isomer, unassigned) [Compound 149b, (S) or (R)-N′-((1,2,3,5,6,7-hexahydrodicyclo-penta[b,e]pyridin-8-yl)carbamoyl)-5-(2-hydroxypropan-2-yl)thiophene-2-sulfonimidamide]"

# Same assay, conditions: Homo sapiens, THP-1, Table B2; 2% fetal bovine serum; class symbols; read-out: hTHP-1 IC50
row,IC50,Structure (SMILES)
1,1 to 5 µM,"CC(C)(O)c1cc(C#N)cc(S(N)(=O)=NC(=O)Nc2c3c(nc4c2CCC4(C)C)CCC3)c1 (single isomer, unassigned) [Compound 674b, (R) or (S)-3-Cyano-N′-((3,3-dimethyl-1,2,3,5,6,7-hexahydrodicyclopenta [b,e]pyridin-8-yl)carbamoyl)-5-(2-hydroxypropan-2-yl)benzene-sulfonimidamide]"
2,5 to 30 µM,"Cc1c(C2CC2)nc2c(c1NC(=O)N=S(N)(=O)c1cnn3c1OCCC3)CCC2 (stereo not shown) [Compound 306, N′-((2-cyclopropyl-3-methyl-6,7-dihydro-5H-cyclopenta[b]pyridin-4-yl)carbamoyl)-6,7-dihydro-5H-pyrazolo[5,1-b][1,3]oxazine-3-sulfonimidamide]"
3,1 to 5 µM,"CC(C)(O)c1ncc(S(N)(=O)=NC(=O)Nc2nc3c(c4c2CCC4)CCC3)s1 (stereo not shown) [Compound 677, N′-((1,2,3,5,6,7-hexahydrodicyclopenta[b,d]pyridin-5-yl)carbamoyl)-2-(2-hydroxypropan-2-yl)thiazole-5-sulfonimidamide]"
4,1 to 5 µM,"CC(C)(O)c1cccc(S(N)(=O)=NC(=O)Nc2c3c(nc4c2CCC4)CCC3)c1 (single isomer, unassigned) [Compound 625b, (R) or (S)-N′-((1,2,3,5,6,7-hexahydrodicyclopenta [b,e]pyridin-8-yl)carbamoyl)-3-(2-hydroxypropan-2-yl)benzene-sulfonimidamide]"
5,1 to 5 µM,"Cc1c(C2CC2)nc2c(c1NC(=O)N=S(N)(=O)c1ccn(C(F)F)n1)CCC2 (single isomer, unassigned) [Compound 676b, (R) or (S)-N′-((2-cyclopropyl-3-methyl-6,7-dihydro-5H-cyclopenta[b]pyridin-4-yl)carbamoyl)-1-(difluoromethyl)-1H-pyrazole-3-sulfonimidamide]"
6,0.04 to 0.2 µM,"Cc1c(C(F)(F)F)nc2c(c1NC(=O)N=S(N)(=O)c1cc(C(C)(C)O)cs1)CCC2 (stereo not shown) [Compound 624, 4-(2-Hydroxypropan-2-yl)-N′-((3-methyl-2-(trifluoromethyl)-6,7-dihydro-5H-cyclopenta[b]pyridin-4-yl)carbamoyl)thiophene-2-sulfonimidamide]"

# Same assay, conditions: Homo sapiens, THP-1, Table B3; hTHP-1 assay, 2% fetal bovine serum; class symbols; read-out: IC50
row,IC50,Structure (SMILES)
1,0.2 to 1 µM,"Cc1c(C(F)(F)F)nc2c(c1NC(=O)N=[S@@](N)(=O)c1cnc(C(C)(C)O)s1)CC(C)C2 (stereo partly drawn) [Example 576, (R)-N′-((3,6-dimethyl-2-(trifluoromethyl)-6,7-dihydro-5H-cyclopenta[b]pyridin-4-yl)carbamoyl)-2-(2-hydroxypropan-2-yl)thiazole-5-sulfonimidamide]"
2,1 to 5 µM,"CO[C@H]1COc2c(S(N)(=O)=NC(=O)Nc3c(C)c(C(F)(F)F)nc4c3CCC4)cnn2C1 (single isomer, unassigned) [Example 656, (R) or (S)-(6R)-6-methoxy-N′-((3-methyl-2-(trifluoromethyl)-6,7-dihydro-5H-cyclopenta[b]pyridin-4-yl)carbamoyl)-6,7-dihydro-5H-pyrazolo[5,1-b][1,3] oxazine-3-sulfonimidamide]"

# Same assay, conditions: Table B1; 2% fetal bovine serum; class symbols; read-out: Average IC50 of compounds in hTHP-1 assay: hTHP-1 IC50
row,IC50,Structure (SMILES)
1,0.2 to 1 µM,"CC(C)c1c(-c2ccccc2)nc2c(c1NC(=O)N=S(N)(=O)c1cnc(C(C)(C)O)s1)CCC2 (single isomer, unassigned) [Compound 145a, (R) or (S)-2-(2-hydroxy-propan-2-yl)-N′-((3-isopropyl-2-phenyl-6,7-dihydro-5H-cyclopenta[b]pyridin-4-yl)carbamoyl)thiazole-5-sulfonimidamide]"
2,0.04 to 0.2 µM,"CC1CCc2c1nc1c(c2NC(=O)N=S(N)(=O)c2sc(C(C)(C)O)cc2F)CCC1 (stereo not shown) [Compound 103, 3-fluoro-5-(2-hydroxypropan-2-yl)-N′-((3-methyl-1,2,3,5,6,7-hexahydrodicyclopenta[b,e]pyridin-8-yl)carbamoyl)thiophene-2-sulfonimidamide]"
3,0.04 to 0.2 µM,"CC(C)c1ncc(F)c(C(C)C)c1NC(=O)N=S(N)(=O)c1nc(C(C)(C)O)cs1 (single isomer, unassigned) [Compound 163a, (R) or (S)-N′-((5-fluoro-2,4-diisopropylpyridin-3-yl)carbamoyl)-4-(2-hydroxypropan-2-yl)thiazole-2-sulfonimidamide]"

# Same assay, conditions: Table B2; 2% fetal bovine serum; class symbols; read-out: hTHP-1 IC50
row,IC50,Structure (SMILES)
1,0.2 to 1 µM,"CC(C)(O)c1sc(S(N)(=O)=NC(=O)Nc2c3c(nc4c2CCC4)CCC3)cc1Cl (single isomer, unassigned) [Compound 688a, (R) or (S)-4-Chloro-N′-((1,2,3,5,6,7-hexahydrodicyclopenta [b,e]pyridin-8-yl)carbamoyl)-5-(2-hydroxypropan-2-yl)thiophene-2-sulfonimidamide]"
2,1 to 5 µM,"Cc1c(C(C)C)nc2c(c1NC(=O)N=S(N)(=O)c1cc(C(C)(C)O)cs1)CCC2 (single isomer, unassigned) [Compound 681a, (S) or (R)-4-(2-Hydroxypropan-2-yl)-N′-((2-isopropyl-3-methyl-6,7-dihydro-5H-cyclopenta[b]pyridin-4-yl)carbamoyl) thiophene-2-sulfonimidamide]"
3,1 to 5 µM,"CC1CCc2c1nc1c(c2NC(=O)N=S(N)(=O)c2cnn(C(C)C)c2)CCC1 (single isomer, unassigned) [Compound 171c, (R, R) and (R, S) or (S, R) and (S, S)-1-Isopropyl-N′-((3-methyl-1,2,3,5,6,7-hexahydrodicyclopenta [b,e]pyridin-8-yl)carbamoyl)-1H-pyrazole-4-sulfonimidamide]"
4,5 to 30 µM,"COCc1nc(C(C)(C)O)sc1S(N)(=O)=NC(=O)Nc1c2c(nc3c1CCC3(C)C)CCC2 (single isomer, unassigned) [Compound 170b, (S) or (R)-N′-((3,3-dimethyl-1,2,3,5,6,7-hexahydrodicyclopenta [b,e]pyridin-8-yl)carbamoyl)-2-(2-hydroxypropan-2-yl)-4-(methoxymethyl) thiazole-5-sulfonimidamide]"
5,1 to 5 µM,"CCc1c(C2CC2)nc2c(c1NC(=O)N=S(N)(=O)c1cnc(C(C)(C)O)s1)CCC2 (single isomer, unassigned) [Compound 675a, (R) or (S)-N′-((2-cyclopropyl-3-ethyl-6,7-dihydro-5H-cyclopenta[b]pyridin-4-yl)carbamoyl)-2-(2-hydroxypropan-2-yl)thiazole-5-sulfonimidamide]"
6,5 to 30 µM,"Cc1c(C(C)C)nc2c(c1NC(=O)N=S(N)(=O)c1cnc(C(C)(C)O)s1)CCC2 (single isomer, unassigned) [Compound 650b, (S) or (R)-2-(2-Hydroxypropan-2-yl)-N′-((2-isopropyl-3-methyl-6,7-dihydro-5H-cyclopenta[b]pyridin-4-yl)carbamoyl)thiazole-5-sulfonimidamide]"

# Same assay, conditions: Table B2; 2% fetal bovine serum; numeric bounds; read-out: hTHP-1 IC50
row,IC50,Structure (SMILES)
1,> 30 µM,"CC1CCc2c1nc1c(c2NC(=O)N=S(N)(=O)c2cn(C(C)C)cn2)CCC1 (single isomer, unassigned) [Compound 660a, (R, S) or (S, S) or (S, R) or (R, R)-1-Isopropyl-N′-((3-metliyl-1,2,3,5,6,7-hexahydrodicyclopenta [b,e]pyridin-8-yl)carbamoyl)-1H-imidazole-4-sulfonimidamide]"

# Same assay, conditions: Table B3; hTHP-1 assay, 2% fetal bovine serum; class symbols; read-out: IC50
row,IC50,Structure (SMILES)
1,1 to 5 µM,"CCc1c(C(F)(F)F)nc2c(c1NC(=O)N=S(N)(=O)c1nn(C(F)F)cc1F)CCC2 (single isomer, unassigned) [Example 709, (R) or (S)-1-(difluoromethyl)-N′-((3-ethyl-2-(trifluoromethyl)-6,7-dihydro-5H-cyclopenta[b]pyridin-4-yl)carbamoyl)-4-fluoro-1H-pyrazole-3-sulfonimidamide]"
